The test system of the assay is human mixed lymphocyte reaction (MLR). As to the kind of experiment: human mixed lymphocyte reaction (MLR) assay, immunosuppressant activity. Type of assay: cell-based. To be noted: Table 1. The method, then: […] Assay of Biological Activity
The immunosuppressant activity of the compounds of the present invention was determined using the human mixed lymphocyte reaction (MLR) assay described by Kino, T. et al. in Transplantation Proceedings, XIX(5):36-39,Suppl. 6 (1987).

The compound `CC[C@@H]1/C=C(\C)C[C@H](C)C[C@H](OC)[C@H]2O[C@@](O)(C(=O)C(=O)N3CCCC[C@H]3C(=O)O[C@H](/C(C)=C/[C@@H]3CCC(OC)C(n4ccnn4)C3)[C@H](C)[C@@H](O)CC1=O)[C@H](C)C[C@@H]2OC` (some centres unmarked) [Example 6] had an IC50 of 0.44 nM. Regarding `CC[C@@H]1/C=C(\C)C[C@H](C)C[C@H](OC)[C@H]2O[C@@](O)(C(=O)C(=O)N3CCCC[C@H]3C(=O)O[C@H](/C(C)=C/[C@@H]3CCC(OC)C(n4nnc5ccccc54)C3)[C@H](C)[C@@H](O)CC1=O)[C@H](C)C[C@@H]2OC` (some centres unmarked) [Example 8], the IC50 turned out to be 1.76 nM. Under `CC[C@@H]1/C=C(\C)C[C@H](C)C[C@H](OC)[C@H]2O[C@@](O)(C(=O)C(=O)N3CCCC[C@H]3C(=O)O[C@H](/C(C)=C/[C@@H]3CC[C@H](n4nnc5ccccc54)[C@H](OC)C3)[C@H](C)[C@@H](O)CC1=O)[C@H](C)C[C@@H]2OC` [Example 7] stands 0.21 nM. Consider `CC[C@@H]1/C=C(\C)C[C@H](C)C[C@H](OC)[C@H]2O[C@@](O)(C(=O)C(=O)N3CCCC[C@H]3C(=O)O[C@H](/C(C)=C/[C@@H]3CC[C@H](n4cncn4)[C@H](OC)C3)[C@H](C)[C@@H](O)CC1=O)[C@H](C)C[C@@H]2OC` [Example 13], for which the IC50 came out at 0.62 nM. Under `CC[C@@H]1/C=C(\C)C[C@H](C)C[C@H](OC)[C@H]2O[C@@](O)(C(=O)C(=O)N3CCCC[C@H]3C(=O)O[C@H](/C(C)=C/[C@@H]3CC[C@H](n4nnc5cc([N+](=O)[O-])ccc54)[C@H](OC)C3)[C@H](C)[C@@H](O)CC1=O)[C@H](C)C[C@@H]2OC` [Example 9] stands 0.23 nM; under `CC[C@@H]1/C=C(\C)C[C@H](C)C[C@H](OC)[C@H]2O[C@@](O)(C(=O)C(=O)N3CCCC[C@H]3C(=O)O[C@H](/C(C)=C/[C@@H]3CC[C@H](n4ccnn4)[C@H](OC)C3)[C@H](C)[C@@H](O)CC1=O)[C@H](C)C[C@@H]2OC` [Example 5], 2.48 nM; under `CC[C@@H]1/C=C(\C)C[C@H](C)C[C@H](OC)[C@H]2O[C@@](O)(C(=O)C(=O)N3CCCC[C@H]3C(=O)O[C@H](/C(C)=C/[C@@H]3CC[C@H](n4nnc5ccc([N+](=O)[O-])cc54)[C@H](OC)C3)[C@H](C)[C@@H](O)CC1=O)[C@H](C)C[C@@H]2OC` [Example 10], 0.22 nM. On to `CC[C@@H]1/C=C(\C)C[C@H](C)C[C@H](OC)[C@H]2O[C@@](O)(C(=O)C(=O)N3CCCC[C@H]3C(=O)O[C@H](/C(C)=C/[C@@H]3CCC(OC)C(n4nnc5ccc([N+](=O)[O-])cc54)C3)[C@H](C)[C@@H](O)CC1=O)[C@H](C)C[C@@H]2OC` (some centres unmarked) [Example 12], for which it took 0.94 nM to reach half-maximal inhibition (IC50).

For the compound `CC[C@@H]1/C=C(\C)C[C@H](C)C[C@H](OC)[C@H]2O[C@@](O)(C(=O)C(=O)N3CCCC[C@H]3C(=O)O[C@H](/C(C)=C/[C@@H]3CCC(OC)C(n4cnc([N+](=O)[O-])n4)C3)[C@H](C)[C@@H](O)CC1=O)[C@H](C)C[C@@H]2OC` (some centres unmarked) [Example 16], half-maximal inhibition (IC50) required 1 nM. Under `CC[C@@H]1/C=C(\C)C[C@H](C)C[C@H](OC)[C@H]2O[C@@](O)(C(=O)C(=O)N3CCCC[C@H]3C(=O)O[C@H](/C(C)=C/[C@@H]3CC[C@H](n4cnc([N+](=O)[O-])n4)[C@H](OC)C3)[C@H](C)[C@@H](O)CC1=O)[C@H](C)C[C@@H]2OC` [Example 15] stands 0.04 nM. Under `CC[C@@H]1/C=C(\C)C[C@H](C)C[C@H](OC)[C@H]2O[C@@](O)(C(=O)C(=O)N3CCCC[C@H]3C(=O)O[C@H](/C(C)=C/[C@@H]3CCC(OC)C(n4nnc5cc([N+](=O)[O-])ccc54)C3)[C@H](C)[C@@H](O)CC1=O)[C@H](C)C[C@@H]2OC` (some centres unmarked) [Example 11] stands 1.56 nM.

As a reminder, the IC50 is the concentration at which inhibition is half-maximal.

These data come from US5541193A, “Heterocycle-containing macrocyclic immunomodulators” (Abbott Laboratories, priority 1995, dated 1996).
